Converted amounts (≈) assume the structure as drawn. Read-outs that look alike come from different tables or passages of the source.
Experiments:
Type in all cases: cell-based
Trichoderma viride (Tv) = assay: Minimum inhibitory concentration (MIC) in malt yeast agar, Trichoderma viride; details: pH 5.5; malt yeast agar, 30° C., 72 hours for fungi; read-out: Minimum Inhibitory Concentration, Tv
Protocol: (§1) The antimicrobial activity of the compounds of the present invention is set forth as the minimum inhibitory concentration (MIC) for the active compounds and is determined for nine (9) bacteria, using nutrient agar, and seven (7) yeast and fungi, using malt yeast agar. This determination is conducted using a one percent solution of the test compound prepared in a mixture of acetone and water.
(§2) Malt yeast agar is prepared at pH 5.5 by adding 3 g yeast extract and 45 g malt agar per liter of deionized water. The specific agar is dispensed in 30 mL aliquots into 25×200 mm test tubes, capped and autoclaved for 15 minutes at 115° C.
(§3) The test tubes containing the agar are cooled in a water bath until the temperature of the agar is 48° C. Then, an appropriate amount of the one percent solution of the test compound is added (except in the controls where no compound is added) to the respective test tubes so that the final concentrations are 500, […], 100, 50, 25, 10, 5, 2.5, 1.0 and zero parts per million of the test compound in the agar, thus having a known concentration of test compound dispersed therein. The contents of the test tubes are then transferred to respective petri plates. After drying for 24 hours, the petri plates containing nutrient agar are inoculated with bacteria and those containing malt yeast agar are inoculated with yeast and fungi.
(§4) The inoculation with the yeast and fungi is accomplished as follows. Cultures of yeast and fungi are incubated for seven days on malt yeast agar at 30° C. These cultures are used to prepare suspensions by the following procedure. A suspension of each organism is prepared by adding 10 mL of sterile saline and 10 microliters of octylphenoxy polyethoxy ethanol to the agar slant of yeast or fungi. The sterile saline/octylphenoxy potyethoxy ethanol solution is then agitated with a sterile swab to suspend the microorganism grown on the slant. Each resulting suspension is diluted into sterile saline (1 part suspension: 9 parts sterile saline). Aliquots of these dilutions are placed in individual wells of Steer's Replicator and petri plates inoculated as previously described. The petri plates are incubated at 30° C. and read after 48 hours for yeast and 72 hours for fungi.

[1] = tested on: Klebsiella pneumoniae (Kp); assay: Minimum inhibitory concentration (MIC) in nutrient agar, Klebsiella pneumoniae
Protocol: as §1
(§5) Nutrient agar is prepared at pH 6.8, representing a neutral medium, and at pH 8.2, representing an alkaline medium. The nutrient agars are prepared by adding 23 g of nutrient agar to one-liter of deionized water. In addition, the alkaline medium is prepared by adjusting a 0.04M solution of N-[tris-(hydroxymethyl)methyl]glycine buffered deionized water with concentrated sodium hydroxide to a pH of 8.5.
as §3
(§6) The inoculation with bacteria is accomplished by using the following procedure. Twenty-four hour-cultures of each of the bacteria are prepared by incubating the respective bacteria in tubes containing nutrient broth for 24 hours at 30° C. in a shaker. Dilutions of each of the 24 hour-cultures are made so that nine separate suspensions (one for each of the nine test bacteria) are made, each containing 10^8 colony forming units (CFU) per mL of suspension of a particular bacteria. Aliquots of 0.3 mL of each of the bacterial suspensions are used to fill the individual wells of Steer's Replicator. For each microbial suspension, 0.3 mL was used to fill three wells (i.e., three wells of 0.3 mL each) so that for the nine different bacteria, 27 wells are filled. The Steer's Replicator is then used to inoculate both the neutral and alkaline pH nutrient agar petri plates.
(§7) The inoculated petri plates are incubated at 30° C. for 48 hours and then read to determine if the test compound which is incorporated into the agar prevented growth of the respective bacteria.

[2] = tested on: Staphylococcus aureus (Sa); assay: Minimum inhibitory concentration (MIC) in nutrient agar, Staphylococcus aureus
Protocol: as §1, §5, §3, §6, §7

[3] = tested on: Salmonella choleraesuis (Se); assay: Minimum inhibitory concentration (MIC) in nutrient agar, Salmonella choleraesuis; details: Salmonella enterica
Protocol: as §1, §5, §3, §6, §7

Aspergillus niger (An) = assay: Minimum inhibitory concentration (MIC) in malt yeast agar, Aspergillus niger; details: pH 5.5; malt yeast agar, 30° C., 72 hours for fungi; read-out: Minimum Inhibitory Concentration, An
Protocol: as §1, §2, §3, §4

Candida albicans (Ca) = assay: Minimum inhibitory concentration (MIC) in malt yeast agar, Candida albicans
Protocol: as §1, §2, §3, §4

Bacillus subtilis (Bs) = assay: Minimum inhibitory concentration (MIC) in nutrient agar, Bacillus subtilis
Protocol: as §1, §5, §3, §6, §7

Proteus vulgaris (Pv) = assay: Minimum inhibitory concentration (MIC) in nutrient agar, Proteus vulgaris; details: 48 h
Protocol: as §1, §5, §3, §6, §7

[4] = tested on: Pseudomonas aeruginosa (Pa); assay: Minimum inhibitory concentration (MIC) in nutrient agar, Pseudomonas aeruginosa
Protocol: as §1, §5, §3, §6, §7

[5] = tested on: Pseudomonas aeruginosa (PRD-10); assay: Minimum inhibitory concentration (MIC) in nutrient agar, Pseudomonas aeruginosa PRD-10; details: 48 h
Protocol: as §1, §5, §3, §6, §7

Escherichia coli (Ec) = assay: Minimum inhibitory concentration (MIC) in nutrient agar, Escherichia coli; details: 48 h
Protocol: as §1, §5, §3, §6, §7

[6] = tested on: Saccharomyces cerevisiae (Sc); assay: Minimum inhibitory concentration (MIC) in malt yeast agar, Saccharomyces cerevisiae
Protocol: as §1, §2, §3, §4

[7] = tested on: Enterobacter aerogenes (Ea); assay: Minimum inhibitory concentration (MIC) in nutrient agar, Enterobacter aerogenes; details: Klebsiella aerogenes, 48 h
Protocol: as §1, §5, §3, §6, §7

[8] = tested on: Aureobasidium pullulan (Ap); assay: Minimum inhibitory concentration (MIC) in malt yeast agar, Aureobasidium pullulan; details: pH 5.5, read-out: Minimum Inhibitory Concentration, Ap
Protocol: as §1, §2, §3, §4

[9] = tested on: Penicillium chrysogenum (Pc); assay: Minimum inhibitory concentration (MIC) in malt yeast agar, Penicillium chrysogenum; details: pH 5.5; malt yeast agar, 30° C., 72 hours for fungi; read-out: Minimum Inhibitory Concentration, PC
Protocol: as §1, §2, §3, §4

Fusarium oxysporum (Fo) = assay: Minimum inhibitory concentration (MIC) in malt yeast agar, Fusarium oxysporum; details: pH 5.5; malt yeast agar, 30° C., 72 hours for fungi; read-out: Minimum Inhibitory Concentration, Fo
Protocol: as §1, §2, §3, §4

[10] = 48 h, pH 8.2, read-out: Minimum Inhibitory Concentration, Kp
[11] = pH 6.8, nutrient agar, 30° C., 48 hours, read-out: Minimum Inhibitory Concentration, Kp
[12] = 48 h, pH 8.2, read-out: Minimum Inhibitory Concentration, Sa
[13] = pH 6.8, nutrient agar, 30° C., 48 hours, read-out: Minimum Inhibitory Concentration, Sa
[14] = 48 h, pH 6.8, read-out: Minimum Inhibitory Concentration, SC
[15] = 48 h, pH 8.2, read-out: Minimum Inhibitory Concentration, SC
[16] = 48 h, pH 8.2, read-out: Minimum Inhibitory Concentration, Bs
[17] = pH 6.8, nutrient agar, 30° C., 48 hours, read-out: Minimum Inhibitory Concentration, Bs
[18] = pH 6.8, read-out: Minimum Inhibitory Concentration, Pv
[19] = pH 8.2, read-out: Minimum Inhibitory Concentration, Pv
[20] = pH 6.8, nutrient agar, 30° C., 48 hours, read-out: Minimum Inhibitory Concentration, Pa
[21] = pH 8.2, nutrient agar, 30° C., 48 hours, read-out: Minimum Inhibitory Concentration, Pa
[22] = pH 6.8, read-out: Minimum Inhibitory Concentration, PRD
[23] = pH 8.2, read-out: Minimum Inhibitory Concentration, PRD
[24] = pH 6.8, read-out: Minimum Inhibitory Concentration, Ec
[25] = pH 8.2, read-out: Minimum Inhibitory Concentration, Ec
[26] = pH 6.8, read-out: Minimum Inhibitory Concentration, Ea
[27] = pH 8.2, read-out: Minimum Inhibitory Concentration, Ea
[28] = pH 5.5, malt yeast agar, 30° C., 48 hours for yeast, read-out: Minimum Inhibitory Concentration, Ca
[29] = 48 h, pH 5.5, read-out: Minimum Inhibitory Concentration, SC

COc1cccc(-c2nsnc2SC#N)c1 [Example VII, a-(3-Methoxyphenyl)-3-thiocyanato-1,2,5-thiadiazole]
MIC (Trichoderma viride (Tv)): 5 µg/mL (≈ 20.1 µM) | MIC [1, 10]: 500 µg/mL (≈ 2010 µM) | MIC [1, 11]: > 500 µg/mL | MIC [2, 12]: 500 µg/mL (≈ 2010 µM) | MIC [2, 13]: 250 µg/mL (≈ 1000 µM) | MIC [3, 14]: > 500 µg/mL | MIC [3, 15]: 500 µg/mL (≈ 2010 µM) | MIC (Aspergillus niger (An)): 10 µg/mL (≈ 40.1 µM) | MIC (Candida albicans (Ca); 48 h, pH 5.5, read-out: Minimum Inhibitory Concentration, Ca): 50 µg/mL (≈ 201 µM) | MIC (Bacillus subtilis (Bs); [16]): 250 µg/mL (≈ 1000 µM) | MIC (Bacillus subtilis (Bs); [17]): 25 µg/mL (≈ 100 µM) | MIC (Proteus vulgaris (Pv); [18]): > 500 µg/mL | MIC (Proteus vulgaris (Pv); [19]): 500 µg/mL (≈ 2010 µM) | MIC [4, 20]: > 500 µg/mL | MIC [4, 21]: 500 µg/mL (≈ 2010 µM) | MIC [5, 22]: > 500 µg/mL | MIC [5, 23]: 500 µg/mL (≈ 2010 µM) | MIC (Escherichia coli (Ec); [24]): > 500 µg/mL | MIC (Escherichia coli (Ec); [25]): 500 µg/mL (≈ 2010 µM) | MIC ([6]; pH 5.5, malt yeast agar, 30° C., 48 hours for yeast, read-out: Minimum Inhibitory Concentration, SC): 5 µg/mL (≈ 20.1 µM) | MIC [7, 26]: > 500 µg/mL | MIC [7, 27]: 500 µg/mL (≈ 2010 µM) | MIC [8]: 5 µg/mL (≈ 20.1 µM) | MIC [9]: 25 µg/mL (≈ 100 µM)

N#CSc1nsnc1-c1cccc(Cl)c1 [Example III, 4-(3-Chlorophenyl)-3-thiocyanato-l,2,5-thiadiazole]
MIC (Trichoderma viride (Tv)): 2.5 µg/mL (≈ 9.85 µM) | MIC ([1]; 48 h, pH 6.8, read-out: Minimum Inhibitory Concentration, Kp): 50 µg/mL (≈ 197 µM) | MIC [1, 10]: 500 µg/mL (≈ 1970 µM) | MIC [2, 13]: 25 µg/mL (≈ 98.5 µM) | MIC ([2]; pH 8.2, nutrient agar, 30° C., 48 hours, read-out: Minimum Inhibitory Concentration, Sa): 250 µg/mL (≈ 985 µM) | MIC [3, 15]: 500 µg/mL (≈ 1970 µM) | MIC ([3]; pH 6.8, nutrient agar, 30° C., 48 hours, read-out: Minimum Inhibitory Concentration, SC): 50 µg/mL (≈ 197 µM) | MIC (Aspergillus niger (An)): 5 µg/mL (≈ 19.7 µM) | MIC (Fusarium oxysporum (Fo)): 2.5 µg/mL (≈ 9.85 µM) | MIC (Candida albicans (Ca); [28]): 5 µg/mL (≈ 19.7 µM) | MIC (Bacillus subtilis (Bs); [17]): 25 µg/mL (≈ 98.5 µM) | MIC (Bacillus subtilis (Bs); pH 8.2, nutrient agar, 30° C., 48 hours, read-out: Minimum Inhibitory Concentration, Bs): 100 µg/mL (≈ 394 µM) | MIC (Proteus vulgaris (Pv); [18]): > 500 µg/mL | MIC (Proteus vulgaris (Pv); [19]): 500 µg/mL (≈ 1970 µM) | MIC [4, 20]: > 500 µg/mL | MIC [4, 21]: 500 µg/mL (≈ 1970 µM) | MIC [5, 22]: > 500 µg/mL | MIC [5, 23]: 500 µg/mL (≈ 1970 µM) | MIC (Escherichia coli (Ec); [24]): 50 µg/mL (≈ 197 µM) | MIC (Escherichia coli (Ec); [25]): 500 µg/mL (≈ 1970 µM) | MIC [6, 29]: 2.5 µg/mL (≈ 9.85 µM) | MIC [7, 26]: > 500 µg/mL | MIC [7, 27]: > 500 µg/mL | MIC [8]: 2.5 µg/mL (≈ 9.85 µM)

N#CSc1nsnc1-c1ccc(C(F)(F)F)cc1 [Example X, 4-(4-Trifluoromethylphenyl)-3-thiocyanato-1,2,5-thiadiazole]
MIC (Trichoderma viride (Tv)): 2.5 µg/mL (≈ 8.7 µM) | MIC [1, 10]: 500 µg/mL (≈ 1740 µM) | MIC [1, 11]: > 500 µg/mL | MIC [2, 12]: 500 µg/mL (≈ 1740 µM) | MIC [2, 13]: > 500 µg/mL | MIC [3, 14]: > 500 µg/mL | MIC [3, 15]: 500 µg/mL (≈ 1740 µM) | MIC (Aspergillus niger (An)): 5 µg/mL (≈ 17.4 µM) | MIC (Candida albicans (Ca); [28]): 5 µg/mL (≈ 17.4 µM) | MIC (Bacillus subtilis (Bs); [16]): 500 µg/mL (≈ 1740 µM) | MIC (Bacillus subtilis (Bs); [17]): 25 µg/mL (≈ 87 µM) | MIC (Proteus vulgaris (Pv); [18]): > 500 µg/mL | MIC (Proteus vulgaris (Pv); [19]): 500 µg/mL (≈ 1740 µM) | MIC ([4]; 48 h, pH 6.8, read-out: Minimum Inhibitory Concentration, Pa): > 50 µg/mL | MIC [4, 21]: 500 µg/mL (≈ 1740 µM) | MIC [5, 22]: > 500 µg/mL | MIC [5, 23]: 500 µg/mL (≈ 1740 µM) | MIC (Escherichia coli (Ec); [24]): > 500 µg/mL | MIC (Escherichia coli (Ec); [25]): 500 µg/mL (≈ 1740 µM) | MIC [6, 29]: 2.5 µg/mL (≈ 8.7 µM) | MIC [7, 26]: > 500 µg/mL | MIC [7, 27]: 500 µg/mL (≈ 1740 µM) | MIC [8]: 2.5 µg/mL (≈ 8.7 µM) | MIC [9]: 5 µg/mL (≈ 17.4 µM)
